In US9962369B2, “Methods and compositions for transdermal delivery” (SPRAYABLE HOLDINGS, INC., priority 2014, dated 2018):

Key:
[1] = Transdermal delivery of melatonin: plasma level of melatonin after applying composition to skin of a subject; settings: control 2.0 ml of […] melatonin suspension in water, plasma level at 1, 2, 4, 8 hours
human skin tissue = experiment: Penetration rate of AI compound in AI-helper composition through human skin in vitro, modified Franz cells; type: in vitro ADME; settings: for Skin penetration rate of lipoic acid: alpha-lipoic acid 0.5% w/v, Tyrosine isopropyl ester•HA 6% w/v, 20° C.; for Skin penetration rate of Al compound: Al compound 0.5% w/v; for Skin penetration rate of Al compound / Skin penetration rate of AI compound: 25 °C
Procedure: Penetration rate of AI compound in the AI-helper composition through human skin were measured in vitro by modified Franz cells. A Franz cell had two chambers: the top sample chamber and the bottom receiving chamber. The human skin tissue (450-500 μm thick) that separated the top and the receiving chambers was isolated from the anterior or posterior thigh areas.

[2] = 0.60 mL of 7% helper ester + 0.5% melatonin in water on skin of the back (20 cm×20 cm)
[3] = 0.375 mL of 7% helper ester + 0.8% melatonin in water on skin of the back (20 cm×20 cm)
[4] = 2-(Diethylamino)ethyl 2-(4-isobutylphenyl)propionate hydrochloride 6% w/v, water
[5] = D-Phenylalanine isopropyl ester hydrochloride 6% w/v, water
[6] = Dialkylaminoalkyl 2-(4-isobutylphenyl)propionate: None
[7] = L-Phenylalanine isopropyl ester hydrochloride 6% w/v, water
[8] = no isoleucine ester (None), AI compound 0.5 % w/v in water
[9] = no leucine ester (None), AI compound 0.5 % w/v in water
[10] = no tryptophan ester (None), AI compound 0.5 % w/v in water
[11] = with D-isoleucine isopropyl ester hydrochloride 6 % w/v in water, AI compound 0.5 % w/v
[12] = with D-leucine isopropyl ester hydrochloride 6 % w/v in water, AI compound 0.5 % w/v
[13] = with D-tryptophan isopropyl ester hydrochloride 6 % w/v in water, AI compound 0.5 % w/v
[14] = with L-isoleucine isopropyl ester hydrochloride 6 % w/v in water, AI compound 0.5 % w/v
[15] = with L-leucine isopropyl ester hydrochloride 6 % w/v in water, AI compound 0.5 % w/v
[16] = with L-tryptophan isopropyl ester hydrochloride 6 % w/v in water, AI compound 0.5 % w/v

## CCCCCCOC(=O)[C@@H](N)CC(C)C [Leucine hexyl ester]
[1]; [2]
  transdermal delivery of melatonin compared to control composition (A): more efficient and effective transdermal delivery of melatonin

## CC[C@H](C)[C@H](N)C(=O)OC(C)C [Isoleucine isopropyl ester]
[1]; [2]
  transdermal delivery of melatonin compared to control composition (A): more efficient and effective transdermal delivery of melatonin

## CCCCN(CCCC)CCOC(=O)c1ccccc1OC(C)=O [2-(Dibutylamino)ethyl 2-acetoxybenzoate]
[1]; [3]
  transdermal delivery of melatonin compared to control composition (A): more efficient and effective transdermal delivery of melatonin

## CCN(CC)CCCCOC(=O)C(C)c1ccc(CC(C)C)cc1 (centres unmarked) [4-(Diethylamino)butyl 2-(4-isobutylphenyl)propionate]
[1]; [2]
  transdermal delivery of melatonin compared to control composition (A): more efficient and effective transdermal delivery of melatonin

## CCCCCCOC(=O)[C@@H]1CCCN1 [Proline hexyl ester]
[1]; [2]
  transdermal delivery of melatonin compared to control composition (A): more efficient and effective transdermal delivery of melatonin

## CCN(CC)CCOC(=O)c1ccccc1OC(C)=O [2-(Diethylamino)ethyl 2-acetoxybenzoate]
[1]; [3]
  transdermal delivery of melatonin compared to control composition (A): more efficient and effective transdermal delivery of melatonin

## CC(=O)Oc1ccccc1C(=O)OCCCCCCN(C)C [6-(Dimethylamino)hexyl 2-acetoxybenzoate]
[1]; [3]
  transdermal delivery of melatonin compared to control composition (A): more efficient and effective transdermal delivery of melatonin

## CCCOC(=O)[C@@H](N)Cc1ccc(O)cc1 [Tyrosine propyl ester]
[1]; 0.3 mL of 7% helper ester + 1% melatonin in water on skin of the back (20 cm×20 cm)
  transdermal delivery of melatonin compared to control composition (A): more efficient and effective transdermal delivery of melatonin

## CCCCCCOC(=O)[C@@H](N)[C@@H](C)CC [Isoleucine hexyl ester]
[1]; [2]
  transdermal delivery of melatonin compared to control composition (A): more efficient and effective transdermal delivery of melatonin

## COC(=O)[C@@H](N)CC(C)C [Leucine methyl ester]
[1]; [2]
  transdermal delivery of melatonin compared to control composition (A): more efficient and effective transdermal delivery of melatonin

## COC(=O)[C@@H]1CCCN1 [Proline methyl ester]
[1]; [2]
  transdermal delivery of melatonin compared to control composition (A): more efficient and effective transdermal delivery of melatonin

## O=C(O)CCCCC1CCSS1 (centres unmarked) [lipoic acid]
Human skin tissue; HA = 1/2H2SO4, water
  Skin penetration rate of lipoic acid: 34.012 ± 2.685 μg/cm^2/h
Human skin tissue; HA = 1/3H3PO4, water
  Skin penetration rate of lipoic acid: 33.25 ± 2.762 μg/cm^2/h
Human skin tissue; HA = 2/3H3PO4, water
  Skin penetration rate of lipoic acid: 34.124 ± 2.912 μg/cm^2/h
Human skin tissue; HA = Acetic acid, water
  Skin penetration rate of lipoic acid: 33.513 ± 2.319 μg/cm^2/h
Human skin tissue; HA = Benzoic acid, water
  Skin penetration rate of lipoic acid: 32.913 ± 4.319 μg/cm^2/h
Human skin tissue; HA = Butyric acid, water
  Skin penetration rate of lipoic acid: 33.452 ± 3.756 μg/cm^2/h
Human skin tissue; HA = Citric acid, water
  Skin penetration rate of lipoic acid: 34.013 ± 2.569 μg/cm^2/h
Human skin tissue; HA = H2SO4, water
  Skin penetration rate of lipoic acid: 33.567 ± 3.125 μg/cm^2/h
Human skin tissue; HA = HBr, water
  Skin penetration rate of lipoic acid: 34.013 ± 3.219 μg/cm^2/h
Human skin tissue; HA = HCl, water
  Skin penetration rate of lipoic acid: 33.613 ± 2.819 μg/cm^2/h
Human skin tissue; HA = HF, water
  Skin penetration rate of lipoic acid: 33.613 ± 3.219 μg/cm^2/h
Human skin tissue; HA = HI, water
  Skin penetration rate of lipoic acid: 33.572 ± 3.129 μg/cm^2/h
Human skin tissue; HA = Lactic acid, water
  Skin penetration rate of lipoic acid: 32.987 ± 4.212 μg/cm^2/h

## CC1=C(/C=C/C(C)=C/C=C/C(C)=C/C=C/C=C(C)/C=C/C=C(C)/C=C/C2=C(C)CCCC2(C)C)C(C)(C)CCC1 [Beta Carotene]
Human skin tissue; [4]
  Skin penetration rate of Al compound: 10.138 ± 2.381 μg/cm^2/h
Human skin tissue; [5]
  Skin penetration rate of Al compound: 10.658 ± 2.003 μg/cm^2/h
Human skin tissue; [6]
  Skin penetration rate of Al compound: 0.015 ± 0.011 μg/cm^2/h
Human skin tissue; [7]
  Skin penetration rate of Al compound: 10.772 ± 2.174 μg/cm^2/h
Human skin tissue; Phenylalanine ester: None
  Skin penetration rate of Al compound: 0.019 ± 0.008 μg/cm^2/h
Human skin tissue; [8]
  Skin penetration rate of AI compound: 0.015 ± 0.007 μg/cm^2/h
Human skin tissue; [9]
  Skin penetration rate of AI compound: 0.012 ± 0.011 μg/cm^2/h
Human skin tissue; [10]
  Skin penetration rate of AI compound: 0.009 ± 0.013 μg/cm^2/h
Human skin tissue; [11]
  Skin penetration rate of AI compound: 9.471 ± 2.323 μg/cm^2/h
Human skin tissue; [12]
  Skin penetration rate of AI compound: 9.501 ± 2.763 μg/cm^2/h
Human skin tissue; [13]
  Skin penetration rate of AI compound: 11.598 ± 2.173 μg/cm^2/h
Human skin tissue; [14]
  Skin penetration rate of AI compound: 9.412 ± 2.781 μg/cm^2/h
Human skin tissue; [15]
  Skin penetration rate of AI compound: 9.252 ± 2.321 μg/cm^2/h
Human skin tissue; [16]
  Skin penetration rate of AI compound: 11.372 ± 2.326 μg/cm^2/h

## CC(C)C[C@H](N)C(=O)OC(C)C [Leucine isopropyl ester]
[1]; [2]
  transdermal delivery of melatonin compared to control composition (A): more efficient and effective transdermal delivery of melatonin

## Cc1ncc(CO)c(CO)c1O.Cl [Vitamin B6]
Human skin tissue; [5]
  Skin penetration rate of Al compound: 16.531 ± 2.106 μg/cm^2/h
Human skin tissue; [6]
  Skin penetration rate of Al compound: 0.023 ± 0.027 μg/cm^2/h
Human skin tissue; [7]
  Skin penetration rate of Al compound: 16.751 ± 2.012 μg/cm^2/h
Human skin tissue; Phenylalanine ester: None
  Skin penetration rate of Al compound: 0.057 ± 0.011 μg/cm^2/h
Human skin tissue; [8]
  Skin penetration rate of AI compound: 0.022 ± 0.017 μg/cm^2/h
Human skin tissue; [9]
  Skin penetration rate of AI compound: 0.029 ± 0.035 μg/cm^2/h
Human skin tissue; [10]
  Skin penetration rate of AI compound: 0.059 ± 0.031 μg/cm^2/h
Human skin tissue; [11]
  Skin penetration rate of AI compound: 13.468 ± 2.211 μg/cm^2/h
Human skin tissue; [13]
  Skin penetration rate of AI compound: 17.131 ± 2.332 μg/cm^2/h
Human skin tissue; [14]
  Skin penetration rate of AI compound: 13.632 ± 2.125 μg/cm^2/h
Human skin tissue; [16]
  Skin penetration rate of AI compound: 17.251 ± 2.415 μg/cm^2/h

## Vitamin A
Human skin tissue; [4]
  Skin penetration rate of Al compound: 18.347 ± 3.132 μg/cm^2/h
Human skin tissue; [5]
  Skin penetration rate of Al compound: 20.015 ± 3.025 μg/cm^2/h
Human skin tissue; [6]
  Skin penetration rate of Al compound: 0.021 ± 0.011 μg/cm^2/h
Human skin tissue; [7]
  Skin penetration rate of Al compound: 20.177 ± 3.241 μg/cm^2/h
Human skin tissue; Phenylalanine ester: None
  Skin penetration rate of Al compound: 0.026 ± 0.015 μg/cm^2/h
Human skin tissue; [8]
  Skin penetration rate of AI compound: 0.015 ± 0.008 μg/cm^2/h
Human skin tissue; [9]
  Skin penetration rate of AI compound: 0.015 ± 0.011 μg/cm^2/h
Human skin tissue; [10]
  Skin penetration rate of AI compound: 0.018 ± 0.012 μg/cm^2/h
Human skin tissue; [11]
  Skin penetration rate of AI compound: 16.515 ± 3.212 μg/cm^2/h
Human skin tissue; [12]
  Skin penetration rate of AI compound: 16.315 ± 3.172 μg/cm^2/h
Human skin tissue; [13]
  Skin penetration rate of AI compound: 21.715 ± 3.685 μg/cm^2/h
Human skin tissue; [14]
  Skin penetration rate of AI compound: 16.656 ± 3.021 μg/cm^2/h
Human skin tissue; [15]
  Skin penetration rate of AI compound: 16.357 ± 3.121 μg/cm^2/h
Human skin tissue; [16]
  Skin penetration rate of AI compound: 20.977 ± 3.741 μg/cm^2/h

## CCCCCCCCOC(=O)[C@@H](N)Cc1ccccc1 [Phenylalanine octyl ester]
[1]; [2]
  transdermal delivery of melatonin compared to control composition (A): more efficient and effective transdermal delivery of melatonin

## CCN(CC)CCCCCOC(=O)C(C)c1ccc(CC(C)C)cc1 (centres unmarked) [5-(Diethylamino)pentyl 2-(4-isobutylphenyl)propionate]
[1]; [2]
  transdermal delivery of melatonin compared to control composition (A): more efficient and effective transdermal delivery of melatonin

## CC(C)OC(=O)[C@@H](N)Cc1ccccc1 [Phenylalanine isopropyl ester]
[1]; [2]
  transdermal delivery of melatonin compared to control composition (A): more efficient and effective transdermal delivery of melatonin

## CCN(CC)CCCOC(=O)c1ccccc1OC(C)=O [3-(Diethylamino)propyl 2-acetoxybenzoate]
[1]; [3]
  transdermal delivery of melatonin compared to control composition (A): more efficient and effective transdermal delivery of melatonin

## Nc1nc2ncc(CNc3ccc(C(=O)N[C@@H](CCC(=O)O)C(=O)O)cc3)nc2c(=O)[nH]1 [Folic acid]
Human skin tissue; [4]
  Skin penetration rate of Al compound: 6.235 ± 1.356 μg/cm^2/h
Human skin tissue; [5]
  Skin penetration rate of Al compound: 6.771 ± 2.872 μg/cm^2/h
Human skin tissue; [6]
  Skin penetration rate of Al compound: 0.012 ± 0.007 μg/cm^2/h
Human skin tissue; [7]
  Skin penetration rate of Al compound: 6.757 ± 3.012 μg/cm^2/h
Human skin tissue; Phenylalanine ester: None
  Skin penetration rate of Al compound: 0.012 ± 0.007 μg/cm^2/h
Human skin tissue; [8]
  Skin penetration rate of AI compound: 0.012 ± 0.007 μg/cm^2/h
Human skin tissue; [9]
  Skin penetration rate of AI compound: 0.007 ± 0.012 μg/cm^2/h
Human skin tissue; [10]
  Skin penetration rate of AI compound: 0.009 ± 0.011 μg/cm^2/h
Human skin tissue; [11]
  Skin penetration rate of AI compound: 5.598 ± 2.812 μg/cm^2/h
Human skin tissue; [12]
  Skin penetration rate of AI compound: 5.523 ± 3.012 μg/cm^2/h
Human skin tissue; [13]
  Skin penetration rate of AI compound: 6.725 ± 3.327 μg/cm^2/h
Human skin tissue; [14]
  Skin penetration rate of AI compound: 5.793 ± 3.116 μg/cm^2/h
Human skin tissue; [15]
  Skin penetration rate of AI compound: 5.786 ± 3.162 μg/cm^2/h
Human skin tissue; [16]
  Skin penetration rate of AI compound: 6.915 ± 3.452 μg/cm^2/h

## CC(C)Cc1ccc(C(C)C(=O)OCCN(C)C)cc1 (centres unmarked) [2-(Dimethylamino)ethyl 2-(4-isobutylphenyl)propionate]
[1]; [2]
  transdermal delivery of melatonin compared to control composition (A): more efficient and effective transdermal delivery of melatonin
